In publication PMC12090182, “Repurposing of the RIPK1-Selective Benzo[1,4]oxazepin-4-one Scaffold for the Development of a Type III LIMK1/2 Inhibitor” (ACS Chemical Biology, 2025):
Where “and” joins values, the source holds several entries; their conditions need not be identical. Identical values can stand only once. Like-named read-outs stand apart in the source and are kept apart here.

What was measured:
CSNK2A2 = CSNK2A2 (Homo sapiens, UniProt P19784); test: DSF selectivity screening; format: binding; conditions: 10 μM compound
Sequence of CSNK2A2 (P19784 1-334): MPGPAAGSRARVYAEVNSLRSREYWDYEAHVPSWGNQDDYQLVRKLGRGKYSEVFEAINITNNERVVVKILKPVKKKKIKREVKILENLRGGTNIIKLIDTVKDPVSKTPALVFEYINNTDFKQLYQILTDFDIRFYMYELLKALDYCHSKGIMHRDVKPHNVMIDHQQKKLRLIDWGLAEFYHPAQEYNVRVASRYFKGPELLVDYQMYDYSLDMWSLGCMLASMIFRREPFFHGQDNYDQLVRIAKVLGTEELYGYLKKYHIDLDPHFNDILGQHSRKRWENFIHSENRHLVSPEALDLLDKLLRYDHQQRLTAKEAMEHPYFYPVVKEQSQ
Procedure: The assay was performed as previously described.[29],[35] Briefly, recombinant protein kinase domains at a concentration of 2 μM were mixed with a 10 μM compound in a buffer containing 20 mM HEPES, pH 7.5, and 500 mM NaCl. SYPRO Orange (5000×, Invitrogen) was added as a fluorescence probe (1 μL per mL). Subsequently, temperature-dependent protein unfolding profiles were measured using a QuantStudio 5 real-time PCR machine (Thermo Fisher). Excitation and emission filters were set to 465 and 590 nm, respectively. The temperature was raised with a step rate of 3 °C per minute. Data points were analyzed with internal software (Thermal Shift Software version 1.4, Thermo Fisher) using the Boltzmann equation to determine the inflection point of the transition curve (Table S4).

RIPK1 = biological target: T1, RIPK1 (Homo sapiens, UniProt Q13546); test: NanoBRET cellular target engagement; format: cell-based; conditions: RIPK1, HEK293T cells
T1 construct: full-length LIMK1/2, RIPK1, BTK, and LRRK2 cloned in a frame in a NanoLuc-vector (Promega); host or cells: HEK293T
T1 sequence (Q13546 1-671): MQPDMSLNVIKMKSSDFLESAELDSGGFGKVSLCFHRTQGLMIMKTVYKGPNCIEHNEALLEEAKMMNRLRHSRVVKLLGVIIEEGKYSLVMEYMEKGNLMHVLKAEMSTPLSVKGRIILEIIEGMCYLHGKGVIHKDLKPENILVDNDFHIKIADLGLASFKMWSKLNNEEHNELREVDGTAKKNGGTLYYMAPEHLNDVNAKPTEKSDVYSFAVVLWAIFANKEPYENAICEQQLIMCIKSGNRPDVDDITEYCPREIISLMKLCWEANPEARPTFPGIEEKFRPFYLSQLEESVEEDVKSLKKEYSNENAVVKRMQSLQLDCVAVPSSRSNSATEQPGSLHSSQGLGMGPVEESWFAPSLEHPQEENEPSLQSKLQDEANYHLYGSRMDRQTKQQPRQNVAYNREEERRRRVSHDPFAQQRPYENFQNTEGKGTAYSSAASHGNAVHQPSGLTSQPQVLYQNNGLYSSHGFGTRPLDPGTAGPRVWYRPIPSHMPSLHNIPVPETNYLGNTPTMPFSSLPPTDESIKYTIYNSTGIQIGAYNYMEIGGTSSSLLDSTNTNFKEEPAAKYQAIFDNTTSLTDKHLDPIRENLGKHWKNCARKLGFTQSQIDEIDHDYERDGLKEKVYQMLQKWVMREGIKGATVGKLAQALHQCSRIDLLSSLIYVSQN
Procedure: The assay was performed as described previously.[31],[32] In brief, full-length LIMK1/2, RIPK1, BTK, and LRRK2 cloned in a frame in a NanoLuc-vector (Promega) were transfected into HEK293T cells (ATCC CRL-1573) using FuGENE HD (Promega, E2312), and proteins were allowed to express for 20 h. The serially diluted inhibitor and NanoBRET Kinase Tracer (Promega) used at the previously determined Tracer KD,app (Table S1) were pipetted into white 384-well plates (Greiner 781 207) using an ECHO 550 acoustic dispenser (Labcyte). The corresponding transfected cells were added and reseeded at a density of 2 × 10^5 cells/mL after trypsinization and resuspension in Opti-MEM without phenol red (Life Technologies). The system was allowed to equilibrate for 2 h at 37 °C and 5% CO2 prior to BRET measurements. To measure BRET, a NanoBRET Nano-Glo substrate and an extracellular NanoLuc inhibitor (Promega, N2160) were added as per the manufacturer's protocol, and filtered luminescence was measured on a PHERAstar plate reader (BMG Labtech) equipped with a luminescence filter pair (a 450 nm BP filter (donor) and a 610 nm LP filter (acceptor)). Competitive displacement data were then plotted using GraphPad Prism 10 software using a normalized three-parameter curve fit with the following equation: Y = 100/( [drawing 1] ).

[1] = system: cofilin phosphorylation (LIMK1/2 substrate); test: Western blot of cofilin phosphorylation in LN-229 cells; format: cell-based, human; conditions: 6 h
Procedure: LN-229, a human glioblastoma cell line, was cultured until passage 17 in Dulbecco’s modified Eagle’s medium (DMEM) with GlutaMAX, 10% fetal bovine serum (FBS), and 1% penicillin/streptomycin. Cells were maintained in an incubator with 5% CO2 at 37 °C. For the treatment, 3 × 10^5 cells were plated and treated with the tested compounds at the indicated concentrations and DMSO as the control for 6 h. The cells were then lysed using RIPA buffer (50 mM Tris HCl pH 7.4, 150 mM NaCl, 1% Triton X-100, 1% NaDOC, 0.1% SDS, and 1 mM EDTA), freshly supplemented with protease and phosphatase inhibitor cocktails (Sigma-Aldrich, Darmstadt, Germany). After a 1 h incubation on ice, the lysates were centrifuged for 30 min at 250g, and the protein-containing supernatant was collected. The protein concentrations were determined using the protein assay dye reagent concentrate (Bradford, Bio-Rad, Hercules, CA, USA) and prediluted protein assay standard bovine serum albumin (BSA) set (Thermo Fisher Scientific, Darmstadt, Germany). Then, equal amounts of protein were mixed with a Roti-Load 1 dye (Carl Roth, Karlsruhe, Germany) and 4× Laemmli buffer (Bio-Rad, Hercules, CA, USA), denatured at 95 °C, and run on NuPAGE 4–12% bis-Tris gels (Thermo Fisher Scientific, Darmstadt, Germany). Proteins were blotted on methanol-activated PVDF transfer membranes (Thermo Fisher Scientific, Darmstadt, Germany) using the wet transfer method with transfer buffer (Thermo Fisher Scientific, Darmstadt, Germany) and 20% methanol. Subsequently, the membranes were blocked with 5% milk or 3% BSA in 0.1% TBS-T for 1 h at RT and incubated overnight at 4 °C with primary antibodies: GAPDH (catalog no. 2118, Cell Signaling Technology, MA, USA, 1:1000 dilution), LIMK1 (catalog no. 3842, Cell Signaling Technology, 1:1000 dilution), LIMK2 (catalog no. 3845, 1:500 dilution), p-cofilin (catalog no. 3313, Cell Signaling Technology, 1:1000 dilution), cofilin (catalog no. 5175, Cell Signaling Technology, 1:1000 dilution). […]

BRPF1B = BRPF1B (Homo sapiens, UniProt P55201); test: DSF selectivity screening; format: binding; conditions: 10 μM compound
Sequence of BRPF1B (P55201 whole entry): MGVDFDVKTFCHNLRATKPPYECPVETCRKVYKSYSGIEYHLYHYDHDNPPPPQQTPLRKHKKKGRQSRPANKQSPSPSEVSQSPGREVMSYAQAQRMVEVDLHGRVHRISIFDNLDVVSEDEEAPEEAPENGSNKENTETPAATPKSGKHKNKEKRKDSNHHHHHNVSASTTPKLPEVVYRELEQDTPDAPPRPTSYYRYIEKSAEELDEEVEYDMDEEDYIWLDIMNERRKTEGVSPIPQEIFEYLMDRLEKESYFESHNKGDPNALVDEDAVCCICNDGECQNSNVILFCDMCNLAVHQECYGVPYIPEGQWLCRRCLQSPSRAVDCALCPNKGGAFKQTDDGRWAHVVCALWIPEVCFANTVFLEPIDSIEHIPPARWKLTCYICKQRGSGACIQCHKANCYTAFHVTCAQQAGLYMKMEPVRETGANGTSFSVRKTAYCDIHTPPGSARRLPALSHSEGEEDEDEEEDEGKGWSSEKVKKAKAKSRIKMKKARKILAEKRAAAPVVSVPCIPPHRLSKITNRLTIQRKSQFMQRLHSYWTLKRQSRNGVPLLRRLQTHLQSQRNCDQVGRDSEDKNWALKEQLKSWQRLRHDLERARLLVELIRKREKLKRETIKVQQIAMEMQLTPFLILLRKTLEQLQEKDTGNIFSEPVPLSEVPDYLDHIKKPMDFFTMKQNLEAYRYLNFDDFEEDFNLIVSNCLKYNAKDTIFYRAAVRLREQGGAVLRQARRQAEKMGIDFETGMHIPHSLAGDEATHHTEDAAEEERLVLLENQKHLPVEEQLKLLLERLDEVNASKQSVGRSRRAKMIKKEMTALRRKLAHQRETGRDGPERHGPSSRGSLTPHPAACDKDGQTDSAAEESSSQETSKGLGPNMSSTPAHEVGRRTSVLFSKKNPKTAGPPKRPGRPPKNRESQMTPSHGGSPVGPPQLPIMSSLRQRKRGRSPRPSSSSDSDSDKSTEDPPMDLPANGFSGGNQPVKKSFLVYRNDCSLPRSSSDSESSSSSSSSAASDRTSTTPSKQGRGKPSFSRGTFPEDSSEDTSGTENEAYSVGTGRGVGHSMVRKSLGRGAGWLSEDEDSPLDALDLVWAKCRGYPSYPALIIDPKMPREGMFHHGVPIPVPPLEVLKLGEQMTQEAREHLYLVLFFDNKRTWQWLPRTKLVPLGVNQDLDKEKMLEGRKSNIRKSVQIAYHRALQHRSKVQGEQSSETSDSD

[2] = biological target: ABL1(Q252H)-phosphorylated (Homo sapiens, UniProt P00519, Q252H); test: biochemical; format: binding; conditions: read-out: Percent Control
FGFR3(G697C) = FGFR3(G697C) (Homo sapiens, UniProt P22607, G697C); test: biochemical; format: binding; conditions: compound concentration 100 nM; Entrez FGFR3; read-out: Percent Control
Sequence of FGFR3(G697C) (P22607 23-806 G697C): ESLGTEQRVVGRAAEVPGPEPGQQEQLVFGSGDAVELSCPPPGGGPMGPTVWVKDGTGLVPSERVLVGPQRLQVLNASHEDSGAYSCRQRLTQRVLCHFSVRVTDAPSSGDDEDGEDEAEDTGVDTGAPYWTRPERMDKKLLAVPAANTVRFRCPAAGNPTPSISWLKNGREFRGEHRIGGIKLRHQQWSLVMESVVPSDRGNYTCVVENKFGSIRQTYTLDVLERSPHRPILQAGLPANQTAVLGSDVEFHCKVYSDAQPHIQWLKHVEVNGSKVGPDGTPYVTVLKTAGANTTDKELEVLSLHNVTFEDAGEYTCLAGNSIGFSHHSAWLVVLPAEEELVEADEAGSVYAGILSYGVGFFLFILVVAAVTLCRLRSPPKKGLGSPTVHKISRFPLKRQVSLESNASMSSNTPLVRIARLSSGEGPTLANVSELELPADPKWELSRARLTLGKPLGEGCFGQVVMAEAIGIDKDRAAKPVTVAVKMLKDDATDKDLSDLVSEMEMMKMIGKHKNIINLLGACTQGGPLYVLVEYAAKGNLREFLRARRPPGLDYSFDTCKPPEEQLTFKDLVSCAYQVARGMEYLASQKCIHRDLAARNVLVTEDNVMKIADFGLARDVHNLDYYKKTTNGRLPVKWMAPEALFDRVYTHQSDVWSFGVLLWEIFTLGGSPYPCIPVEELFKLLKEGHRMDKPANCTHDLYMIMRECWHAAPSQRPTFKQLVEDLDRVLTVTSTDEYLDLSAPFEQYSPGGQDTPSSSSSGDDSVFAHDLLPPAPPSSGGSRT

Row | SMILES | ΔTm at 10 µM (CSNK2A2) [°C] | EC50 (RIPK1; read-out: EC50 (NanoBRET)) | cofilin phosphorylation (Western blot) ([1]; 5 μM) | ΔTm at 10 µM (BRPF1B) [°C] | EC50 (RIPK1; read-out: EC50 (NanoBRET), Figure 4C) [nM] | cofilin phosphorylation (Western blot) ([1]; 100 nM) | cofilin phosphorylation (Western blot) ([1]; 1 μM and higher concentrations) | remaining activity at 1 µM [2] [%] | remaining activity at 0.1 µM (FGFR3(G697C)) [%]
1 | CN1C(=O)[C@@H](N2CCc3c(C(N)=O)nn(Cc4ccccc4)c3C2=O)COc2ccccc21 [Compound 11] | 2.2 | 3500 nM | no effect | – | – | – | – | – | –
2 | CN1C(=O)[C@@H](N2CCc3c(nn(Cc4ccccc4)c3C(N)=O)C2=O)COc2cc(Cl)ccc21 [Compound 10, (S)-2-benzyl-6-(8-chloro-5-methyl-4-oxo-2,3,4,5-tetrahydrobenzo[b][1,4]oxazepin-3-yl)-7-oxo-4,5,6,7-tetrahydro-2H-pyrazolo[3,4-c]pyridine-3-carboxamide] | 2.3 | 6.3 nM and 7.8 nM | – | -0.1 | 7.85 | weaker levels of phosphorylation | almost completely abrogated | 78 | 92
